Patent publication US8410107B2, “N-pyridin-3-yl or N-pyrazin-2-yl carboxamides” (Hoffmann-La Roche Inc., priority 2010, dated 2013)

Legend:
human CB2 receptor = target: T1, human CB2 receptor (Homo sapiens, UniProt P34972); experiment: CB2 receptor affinity ([3H]-CP-55,940 displacement, HEK cell membranes); format: binding; conditions: displacement of radioligand [3H]-CP-55,940
T1 construct: expressed in transfected cells; host or cells: human embryonic kidney (HEK) cells, Semliki Forest Virus system, membrane preparations
Procedure, shortened: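 Membranes from HEK cells transiently expressing human CB2 via Semliki Forest Virus, incubated with [3H]-CP-55,940 ± compound; bound ligand separated by glass-fiber filtration and counted by scintillation. Reported as % inhibition of radioligand binding at 10 μM compound.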

ABCA1 protein = experiment: Detection of upregulation of ABCA1 protein in cells (ApoA-I binding, high content image analysis); format: cell-based; conditions: THP-1 macrophage cells; for EC50: ABCA1 protein increasing efficacy; for % increase of ABCA1 at 3 μM: 24 hrs with compound
Procedure, shortened: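 THP-1 cells differentiated with 100 nM PMA for 68 hrs, loaded with 25 μg/ml acetylated LDL for 24 hours, then exposed to compound (0.5% DMSO) for 24 hrs. Surface ABCA1 measured by binding of AlexaFluor 647-labeled human ApoA-I (20 nM, 2 h, 37 °C) with confocal high-content imaging; EC50 from one-site dose-response fit.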

human CB1 receptor = target: T2, human CB1 receptor (Homo sapiens, UniProt P21554); experiment: CB1 receptor affinity ([3H]-CP-55,940 displacement, HEK cell membranes); format: binding; conditions: displacement of radioligand [3H]-CP-55,940
T2 construct: expressed in transfected cells; host or cells: human embryonic kidney (HEK) cells, Semliki Forest Virus system, membrane preparations
Procedure, shortened: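 HEK cell membranes transiently expressing human CB1 (Semliki Forest Virus) incubated with [3H]-CP-55,940 and compound at 10 μM. Bound and free ligand separated by glass-fibre filtration, then scintillation counting. Reported as % inhibition of radioligand binding.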

T1 sequence (P34972 whole entry): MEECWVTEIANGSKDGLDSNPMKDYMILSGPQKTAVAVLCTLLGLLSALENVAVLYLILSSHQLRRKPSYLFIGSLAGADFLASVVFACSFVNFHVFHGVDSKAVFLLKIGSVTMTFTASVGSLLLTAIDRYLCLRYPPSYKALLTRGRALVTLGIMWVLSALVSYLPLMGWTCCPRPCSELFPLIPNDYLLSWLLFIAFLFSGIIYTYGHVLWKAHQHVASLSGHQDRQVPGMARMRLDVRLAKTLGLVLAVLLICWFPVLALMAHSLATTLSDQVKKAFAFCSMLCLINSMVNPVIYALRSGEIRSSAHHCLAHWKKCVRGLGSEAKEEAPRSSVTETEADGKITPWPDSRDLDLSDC
T2 sequence (P21554 whole entry): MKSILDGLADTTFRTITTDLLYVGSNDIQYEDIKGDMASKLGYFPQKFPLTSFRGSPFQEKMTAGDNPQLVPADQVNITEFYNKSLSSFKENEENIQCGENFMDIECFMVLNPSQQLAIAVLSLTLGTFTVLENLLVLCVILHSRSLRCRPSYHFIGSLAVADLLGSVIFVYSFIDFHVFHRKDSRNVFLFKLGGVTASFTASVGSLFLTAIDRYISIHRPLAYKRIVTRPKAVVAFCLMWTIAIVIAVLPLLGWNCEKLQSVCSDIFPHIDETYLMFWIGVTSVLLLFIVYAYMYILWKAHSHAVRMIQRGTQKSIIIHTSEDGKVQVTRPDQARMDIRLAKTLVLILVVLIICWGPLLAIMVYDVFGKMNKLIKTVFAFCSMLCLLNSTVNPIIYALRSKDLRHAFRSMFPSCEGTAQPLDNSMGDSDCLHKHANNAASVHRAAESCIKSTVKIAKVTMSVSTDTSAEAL

| inhibition at 10 µM (human CB2 receptor) [%] | inhibition at 10 µM (human CB1 receptor) [%] | SMILES | EC50 (ABCA1 protein) [nM] | % increase of ABCA1 at 3 μM (ABCA1 protein) [% @ 3 μM] |
| --- | --- | --- | --- | --- |
| 4 | -4 | Cc1cc(-c2cc(NC(=O)c3cccnn3)cnc2OCC(F)(F)F)ccc1Cl [Example 62, N-(5-(4-chloro-3-methylphenyl)-6-(2,2,2-trifluoroethoxy)pyridin-3-yl)pyridazine-3-carboxamide] | 2390 | – |
| -1 | 5 | O=C(Nc1cnc(OCC(F)(F)F)c(-c2ccc(Cl)c(F)c2)c1)c1cccnn1 [Example 63, N-(5-(4-chloro-3-fluorophenyl)-6-(2,2,2-trifluoroethoxy)pyridin-3-yl)pyridazine-3-carboxamide] | 680 | – |
| 2 | 9 | O=C(Nc1cnc(OCC(F)(F)F)c(-c2ccc(Cl)cc2F)c1)c1cccnn1 [Example 64, N-(5-(4-chloro-2-fluorophenyl)-6-(2,2,2-trifluoroethoxy)pyridin-3-yl)pyridazine-3-carboxamide] | 1080 | – |
| 5 | 19 | CCc1ccc(-c2cc(NC(=O)c3cccnn3)cnc2OCC(F)(F)F)cc1 [Example 65, N-(5-(4-ethylphenyl)-6-(2,2,2-trifluoroethoxy)pyridin-3-yl)pyridazine-3-carboxamide] | 270 | – |
| 5 | 30 | O=C(Nc1cnc(OCC(F)(F)F)c(-c2ccc(Cl)cc2)c1)c1ccco1 [Example 66, N-(5-(4-chlorophenyl)-6-(2,2,2-trifluoroethoxy)pyridin-3-yl)furan-2-carboxamide] | – | >45 |
| 9 | 33 | O=C(Nc1cnc(OCC(F)(F)F)c(-c2ccc(Cl)cc2)c1)c1ccoc1 [Example 67, N-(5-(4-chlorophenyl)-6-(2,2,2-trifluoroethoxy)pyridin-3-yl)furan-3-carboxamide] | – | >45 |
| 4 | 26 | Cc1ccc(C(=O)Nc2cnc(OCC(F)(F)F)c(-c3ccc(Cl)cc3)c2)o1 [Example 68, N-(5-(4-chlorophenyl)-6-(2,2,2-trifluoroethoxy)pyridin-3-yl)-5-methylfuran-2-carboxamide] | – | >45 |
| 18 | 35 | COCCOc1ncc(NC(=O)c2ccccc2)cc1-c1ccc(Cl)c(C)c1 [Example 69, N-(5-(4-chloro-3-methylphenyl)-6-(2-methoxyethoxy)pyridin-3-yl)benzamide] | – | >45 |
| -7 | 25 | CN1CCOc2cc(C(=O)Nc3cnc(OCC(F)(F)F)c(-c4ccc(Cl)cc4)c3)cnc21 [Example 72, N-(5-(4-chlorophenyl)-6-(2,2,2-trifluoroethoxy)pyridin-3-yl)-4-methyl-3,4-dihydro-2H-pyrido[3,2-b][1,4]oxazine-7-carboxamide] | 780 | – |
| 22 | 13 | Nc1ccc(-c2cc(NC(=O)c3cncc(I)c3)cnc2OCC(F)(F)F)cc1Cl [Example 73, N-(5-(4-amino-3-chlorophenyl)-6-(2,2,2-trifluoroethoxy)pyridin-3-yl)-5-iodonicotinamide] | – | >45 |
| -7 | 17 | O=C(Nc1cnc(OCC(F)(F)F)c(-c2ccccc2)c1)c1cccnc1 [Example 74, N-(5-phenyl-6-(2,2,2-trifluoroethoxy)pyridin-3-yl)nicotinamide] | – | >45 |
| 5 | 31 | O=C(Nc1cnc(OCC(F)(F)F)c(-c2ccc(F)cc2)c1)c1cccnc1 [Example 75, N-(5-(4-fluorophenyl)-6-(2,2,2-trifluoroethoxy)pyridin-3-yl)nicotinamide] | – | >45 |
| 5 | 1 | O=C(Nc1cnc(OCC(F)(F)F)c(-c2cccc(Cl)c2)c1)c1cccnc1 [Example 76, N-(5-(3-chlorophenyl)-6-(2,2,2-trifluoroethoxy)pyridin-3-yl)nicotinamide] | – | >45 |
| 16 | 33 | COc1cncc(C(=O)Nc2cnc(OCC(F)(F)F)c(-c3ccc(Cl)cc3)c2)c1 [Example 77, N-(5-(4-chlorophenyl)-6-(2,2,2-trifluoroethoxy)pyridin-3-yl)-5-methoxynicotinamide] | 720 | – |
| 14 | 16 | Cc1cc(-c2cc(NC(=O)c3cnc4c(c3)OCCN4C)cnc2OCC(F)(F)F)ccc1Cl [Example 80, N-(5-(4-chloro-3-methylphenyl)-6-(2,2,2-trifluoroethoxy)pyridin-3-yl)-4-methyl-3,4-dihydro-2H-pyrido[3,2-b][1,4]oxazine-7-carboxamide] | – | >45 |
| 5 | 21 | CN1CCOc2cc(C(=O)Nc3cnc(OCC(F)(F)F)c(-c4ccc(Cl)c(F)c4)c3)cnc21 [Example 81, N-(5-(4-chloro-3-fluorophenyl)-6-(2,2,2-trifluoroethoxy)pyridin-3-yl)-4-methyl-3,4-dihydro-2H-pyrido[3,2-b][1,4]oxazine-7-carboxamide] | 2560 | – |
| 3 | 23 | CNC(=O)c1ccc(C(=O)Nc2cnc(OCC(F)(F)F)c(-c3ccc(Cl)cc3)c2)cn1 [Example 84, N5-(5-(4-chlorophenyl)-6-(2,2,2-trifluoroethoxy)pyridin-3-yl)-N2-methylpyridine-2,5-dicarboxamide] | – | >45 |
| 5 | 38 | O=C(Nc1cnc(OCC(F)(F)F)c(-c2ccc(Cl)cc2)c1)c1cncc(Br)c1 [Example 85, 5-bromo-N-(5-(4-chlorophenyl)-6-(2,2,2-trifluoroethoxy)pyridin-3-yl)nicotinamide] | – | >45 |
| 5 | 48 | COC(C)C(=O)Nc1cnc(OCC(F)(F)F)c(-c2ccc(Cl)cc2)c1 (stereo not drawn) [Example 86, N-(5-(4-chlorophenyl)-6-(2,2,2-trifluoroethoxy)pyridin-3-yl)-2-methoxy-propanamide] | – | >45 |
| -15 | 19 | CNC(=O)c1cncc(C(=O)Nc2cnc(OCC(F)(F)F)c(-c3ccc(Cl)cc3)c2)c1 [Example 87, N3-(5-(4-chlorophenyl)-6-(2,2,2-trifluoroethoxy)pyridin-3-yl)-N5-methylpyridine-3,5-dicarboxamide] | – | >45 |
| 16 | 41 | CO[C@H](C)C(=O)Nc1cnc(OCC(F)(F)F)c(-c2ccc(Cl)cc2)c1 [Example 88, (+)-N-(5-(4-chlorophenyl)-6-(2,2,2-trifluoroethoxy)pyridin-3-yl)-2-methoxypropanamide] | – | >45 |
| 5 | 35 | CO/N=C(\C)C(=O)Nc1cnc(OCC(F)(F)F)c(-c2ccc(Cl)cc2)c1 [Example 89, (E)-N-(5-(4-chlorophenyl)-6-(2,2,2-trifluoroethoxy)pyridin-3-yl)-2-(methoxyimino)propanamide] | 3310 | – |

| SMILES | inhibition at 10 µM (human CB2 receptor) [%] | inhibition at 10 µM (human CB1 receptor) [%] | EC50 (ABCA1 protein) [nM] | % increase of ABCA1 at 3 μM (ABCA1 protein) [% @ 3 μM] |
| --- | --- | --- | --- | --- |
| O=C(Nc1cnc(OC2CCC2)c(-c2ccc(Cl)cc2)c1)c1cnccn1 [Example 78, N-(5-(4-chlorophenyl)-6-cyclobutoxypyridin-3-yl)pyrazine-2-carboxamide] | 26 | 25 | – | >45 |
| O=C(Nc1cnc(OC2CCC2)c(-c2ccc(Cl)cc2)c1)c1cccnc1 [Example 79, N-(5-(4-chlorophenyl)-6-cyclobutoxypyridin-3-yl)nicotinamide] | 13 | 29 | – | >45 |
| Cc1ocnc1C(=O)Nc1cnc(OC2CCC2)c(-c2ccc(Cl)cc2)c1 [Example 82, 5-Methyl-oxazole-4-carboxylic acid[5-(4-chloro-phenyl)-6-cyclobutoxy-pyridin-3-yl]-amide] | 37 | 29 | – | >45 |
| Cc1cncc(C(=O)Nc2cnc(OC3CCC3)c(-c3ccc(Cl)cc3)c2)c1 [Example 83, N-[5-(4-Chloro-phenyl)-6-cyclobutoxy-pyridin-3-yl]-5-methyl-nicotinamide] | -5 | 27 | – | >45 |
